The text below walks through data of patent US11674963B2, “GPCRs in cancer-associated fibroblasts” (The Regents of the University of California, priority 2017, dated 2023).

Where a SMILES comes first, the peptide text is derived from it. The star is where a group is joined. Cbz = O=C(OCc1ccccc1)*

Holding throughout (format): cell-based, human
The subject of assay [1] is PSCs. As to the kind of experiment: Real-time qPCR of gene expression in PSCs incubated with TGFβ1 or TNFα. The settings on record: PSCs incubated 48 h with 50 ng/mL. The source says:
(§1) FIGS. 3A-3D show co-culture of PDAC cells and PSCs increases expression by PSCs of GPR68 and fibrotic genes, effects mediated by TNFα and TGFβ, respectively. […] Relative expression was compared by 2^(ΔCt control-ΔCtco-culture). Data are mean±SEM, n=3, unpaired t test, *p<0.05, **p<0.01, ***p<0.001, ****p<0.0001. […] Relative expression was compared by 2^(ΔCt control-ΔCtTGFβ1 or ΔCtTNFα). Data are mean±SEM, n=3, unpaired t test, *p<0.05, **p<0.01, ****p<0.0001. […] Relative expression was compared to control by 2(ΔCt control-ΔCtco-culture). Data are mean±SEM, n=3, unpaired t test, *p<0.05. […] Relative expression was normalized to control by 2(ΔCt^control-ΔCtTGFβ1 or ^ΔCtTNFα) n=3, data are mean±SEM, unpaired t test, *p<0.05, **p<0.01, ****p<0.0001.
RNA isolated using an RNeasy kit with DNase treatment (Qiagen) and converted to cDNA using an iScript cDNA Synthesis Kit (Bio-Rad, Irvine, Calif., USA). cDNA was mixed with gene-specific primers and SYBR green reagent (Quanta Biosciences, Gaithersburg, Md., USA) for PCR amplification using a DNA Engine Opticon 2 system (MJ Research, Waltham, Mass., USA). Primers were designed using Primer Premier 6 software (PREMIER Biosoft, Palo Alto, Calif., USA). Gene expression was quantified as ΔCt using 18S rRNA as the reference gene. Expression of different cells was compared as fold-change=2(AACt). RNA isolated using an RNeasy kit with DNase treatment (Qiagen) and converted to cDNA using an iScript cDNA Synthesis Kit (Bio-Rad, Irvine, Calif., USA). cDNA was mixed with gene-specific primers and SYBR green reagent (Quanta Biosciences, Gaithersburg, Md., USA) for PCR amplification using a DNA Engine Opticon 2 system (MJ Research, Waltham, Mass., USA). Primers were designed using Primer Premier 6 software (PREMIER Biosoft, Palo Alto, Calif., USA). Gene expression was quantified as ΔCt using 18S rRNA as the reference gene. Expression of different cells was compared as fold-change=2(AACt). The primer sequences are: 18S-F: 5′-[…]-3′ (SEQ ID NO: 1); 18S-R: 5′-[…]-3′ (SEQ ID NO: 2); GPR68-F: 5′-CCTTCCGCTTCCACCAGTT-3′ (SEQ ID NO: 3); GPR68-R: 5′-TCGTCCTCGATGACCTCCT-3′ (SEQ ID NO: 4); ACTA2-F: 5′-[…]-3′ (SEQ ID NO: 5); ACTA2-R: 5′-[…]-3′ (SEQ ID NO: 6); COL1A1-F: 5′-[…]-3′ (SEQ ID NO: 7); COL1A1-R: 5′-[…]-3′ (SEQ ID NO: 8); IL6-F: 5′-[…]-3′ (SEQ ID NO: 9); IL6-R: 5′-[…]-3′ (SEQ ID NO: 10); COL3A1-F: 5′-GCTGGCTACTTCTCGCTCT-3′ (SEQ ID NO: 11); COL3A1-R: 5′-[…]-3′ (SEQ ID NO: 12); POSTN-F: 5′-[…]-3′ (SEQ ID NO: 13); POSTN-R: 5′-[…]-3′ (SEQ ID NO: 14); CTGF-F: 5′-[…]-3′ (SEQ ID NO: 15); CTGF-R: 5′-GCTACAGGCAGGTCAGTGA-3′ (SEQ ID NO: 16); PDGFRB-F: 5′-[…]-3′ (SEQ ID NO: 17); PDGFRB-R: 5′-[…]-3′ (SEQ ID NO: 18). Gene expression was quantified as ΔCt using 18S rRNA as the reference gene. We compared expression of different cells as fold-change=2(AACt).
For orientation: Real-time PCR tracks product formation cycle by cycle.

Another assay deals with CAFs. As to the kind of experiment: Real-time qPCR of GPR68 and IL-6 expression in CAFs at pH 6.8 with PKA or CREB inhibitors. The settings on record: CAFs cultured 6 h in pH 6.8 media, normalized to pH 7.4. The protocol: FIG. 6A show CAFs transfected with control or GPR68 siRNA were cultured in pH media for 30 min, treated with 1 mM IBMX for 10 min and cellular cAMP was measured by the HitHunter cAMP assay. Data are mean±SEM, n=3, two-way ANOVA, *p<0.05, ****p<0.0001. […] Results were normalized to those at pH 7.4. n=3, data are mean±SEM, unpaired t test, **p<0.01, ***p<0.001, ns=non-significant. […] Activation of CREB is shown as p-CREB/CREB. Data are mean±SEM, n=3, unpaired t test, *p<0.05. […] Results are normalized to those at pH 7.4. Data are mean±SEM, n=3, unpaired t test, **p<0.01, ***p<0.001, ns=non-significant.
(§2) RNA isolated using an RNeasy kit with DNase treatment (Qiagen) and converted to cDNA using an iScript cDNA Synthesis Kit (Bio-Rad, Irvine, Calif., USA). cDNA was mixed with gene-specific primers and SYBR green reagent (Quanta Biosciences, Gaithersburg, Md., USA) for PCR amplification using a DNA Engine Opticon 2 system (MJ Research, Waltham, Mass., USA). Primers were designed using Primer Premier 6 software (PREMIER Biosoft, Palo Alto, Calif., USA). Gene expression was quantified as ΔCt using 18S rRNA as the reference gene. Expression of different cells was compared as fold-change=2(AACt). RNA isolated using an RNeasy kit with DNase treatment (Qiagen) and converted to cDNA using an iScript cDNA Synthesis Kit (Bio-Rad, Irvine, Calif., USA). cDNA was mixed with gene-specific primers and SYBR green reagent (Quanta Biosciences, Gaithersburg, Md., USA) for PCR amplification using a DNA Engine Opticon 2 system (MJ Research, Waltham, Mass., USA). Primers were designed using Primer Premier 6 software (PREMIER Biosoft, Palo Alto, Calif., USA). Gene expression was quantified as ΔCt using 18S rRNA as the reference gene. Expression of different cells was compared as fold-change=2(AACt). […] Gene expression was quantified as ΔCt using 18S rRNA as the reference gene. […]
The pH media are DMEM containing 5 g/L glucose, 20 mM HEPES, 20 mM NaHCO3, 2% FBS, 100 I.U./ml penicillin and 100 μg/ml streptomycin, pH adjusted by HCl or NaOH at room temperature. […] Cell viability were assessed by a CEllTiter-Glo Luminescent assay (Promega) and detected using a DXT 800 multimode plate reader (Beckman Coulter, Carlsbad, Calif., USA).

For assay [2], the system named is PSCs. Kind of assay: Real-time qPCR of GPR68 expression in PSCs incubated with TNFα and NF-κB inhibitors. The settings on record: 6 h, TNFα 50 ng/mL; MG-132 20 μM, IKK2 inhibitor VI 5 μM, JSH-23 20 μM, CAY10512 0.3 μM.
Excerpt: as §1, §2

Take TNFα: in the assay on PSCs [1], the ACTA2 expression result is listed as “not higher” and the COL1A1 expression entry is “not higher”. In addition, in the assay with PSCs [1] (higher vs control), the “expression of GPR68” value is given as 18 fold and the “expression of IL-6” value is 31 fold.
With `O=C(Nc1ccc(Cl)cc1)c1cc2ccccc2cc1O` [naphthol AS-E], in the assay on CAFs, the “GPR68 expression in CAFs” value is listed as “without altering” and the “pH 6.8-promoted increase in IL-6 expression by CAFs” value is “blunted”.
The matching figures for `O=S(=O)(NCCNC/C=C/c1ccc(Br)cc1)c1cccc2cnccc12` [H89]: “did not alter” and “blocked”.
As to `NC(=O)Nc1sc(-c2ccccc2)cc1C(N)=O` [IKK2 inhibitor VI], the “TNFα-promoted increase in GPR68 expression in PSCs” value (shortened to “TNFα-promoted increase”) in the assay on PSCs [2] is listed as “reduced”.
On to `Cc1ccc(NCCCc2ccccc2)c(N)c1` [JSH-23], for which the “TNFα-promoted increase” value in the assay with PSCs [2] is reported as “reduced”.
On to `CC(C)C[C@@H](C=O)NC(=O)[C@H](CC(C)C)NC(=O)[C@H](CC(C)C)NC(=O)OCc1ccccc1` [MG132] (Cbz-Leu-Leu-Leu-aldehyde), for which, in the assay with PSCs [2], the “TNFα-promoted increase” value is “reduced”.
“TGFβ1: Transforming growth factor beta 1, a driver of PSC activation”: in the assay with PSCs [1], the ACTA2 expression entry is given as “increased expression” and the COL1A1 expression entry is “increased expression”. Moreover, the GPR68 expression entry in the assay on PSCs [1] (result in words) is “did not change”.
